In US6121457A, “Compositions and methods using novel substituted imidazolium lipids” (Megabios Corporation, priority 1998, dated 2000):

What was measured:
CAT protein in lungs = experiment: IV gene transfer in mice: lung CAT reporter expression (plasmid p4119) by ELISA; format: in vivo, ICR female mice; details: for mean CAT expression level (CAT ELISA): formulated with cholesterol and plasmid p4119, IV, five mice each, value followed by +/- spread
Procedure: This example provides an evaluation of the cationic lipid prepared in Example 1.
Two mice studies have been performed for the evaluation of cationic lipids of the present invention, in comparison with DOTIM (see, Liu, et al, Nature Biotechnology 15:167-173 (1997)). In brief, the lipid combinations were tested as carriers for gene transfer by intravenous delivery in ICR female mice (25 g), and expression was determined using the plasmid p4119 containing the CAT reporter gene under the control of the HCMV promoter. The lipids were dissolved in a mixture of chloroform and methanol (1:1). Lipid films of cationic and neutral lipid (either cholesterol or DLPE) at a 1:1 molar ratio were formed with a rotary evaporator. The films were hydrated with 5% dextrose in water (D5W) at room temperature and extruded through a series of membranes having pore sizes of 400 nm, 200 nm, and 50 nm.
DNA-liposome complexes were prepared at a 1:6 DNA:cationic lipid ratio (mg DNA per μmole cationic lipid) by adding the DNA, in a solution at 0.625 mg/mL concentration in D5W to the solution of liposomes, in an equal volume, with constant stirring, using a Hamilton Dilutor 540B (Hamilton, Reno, Nev.). DOTIM:cholesterol was used at a 1:6 DNA:cationic lipid ratio. The DNA solution was 0.3125 mg/mL DNA in D5W. The resulting complexes were sized using a Submicron Particle Sizer 370 (Nicomp, Santa Barbara, Calif.). Zeta potential was determined by a Zeta Plus, Zeta Potential Analyzer (Brookhaven Instruments Corp.). A total of 5 mice were tested per group. A dose of 62.5 μg p4119 plasmid DNA in 200 μL D5W was injected by tail vein per mouse. The lungs were harvested after 24 hours and assayed for CAT protein by ELISA assay. […] The upper organic phase was then transferred into scintillation vials containing 5 mL of Ready Safe Liquid Scintillation Cocktail (Beckman, Fullerton, Calif.). Samples were counted for 1 min each. […]

[1] = test system: CAT reporter protein in lung and serum; experiment: IV delivery in rabbits: CAT ELISA, lung and serum; format: in vivo; details: Rabbit #4, lipid only, highest vol. IV, about 24 h
Procedure: This example provides an evaluation of Compound 1 as a suitable lipid in DNA:lipid complexes for transfection in rabbits.
(§1) Pilot studies were conducted to assess the suitability of rabbits as a development model for delivery of lipid:DNA complexes. The study confirmed that rabbits offer the ability to express transfected genes as well as display some anticipated toxicity endpoints.
(§2) A 2 mL blood sample is collected immediately prior to dose delivery for serum collection and another 2 mL for a CBC/clinical chemistry screen. Sufficient blood is also collected at necropsy to perform a CBC and clinical chemistry screen and preserve serum (minimum of 8 mL).
(§3) Approximately 24 hours after dosing the animals are euthanized using a barbiturate overdose. Following euthanasia, body weights are determined and an examination is made for the presence of pleural fluid. Any fluid present is harvested while avoiding blood contamination. Total protein and albumin levels are determined on the pleural fluid.
(§4) Tissues are collected and preserved as follows: lung tissue (8 vials in liquid nitrogen, 2 lobes infused with formalin, and optionally 2 Whirlpaks® in dry ice); liver tissue (multiple sites in formalin); kidney tissue (multiple sites in formalin); spleen tissue (multiple sites in formalin); heart tissue (multiple sites in formalin); and multiple serum samples (6 mL minimum in dry ice).

[2] = IV toleration and necropsy observations in rabbits; format: in vivo, rabbit; details: just the lipid, about 24 h
Procedure: as §1, §2, §3, §4

| SMILES | lung CAT expression / in vivo activity, in words (CAT protein in lungs; IV, mice, both protocols) | mean CAT expression level (CAT ELISA) (CAT protein in lungs) [pg/mg] | CAT ELISA, lung [1] [pg/mg] | CAT ELISA, serum [1] [pg/mL] | airway foam or excessive pleural fluid [2] | lesions [2] | lung appearance at necropsy [2] |
| --- | --- | --- | --- | --- | --- | --- | --- |
| CCCCCCCC/C=C\CCCCCCCC[N+]1=C(CCCCCCC/C=C\CCCCCCCC)N(CCO)CC1 [Compound 1] | retained the in vivo activity of DOTIM | 306.09 | 0 | 0 | no airway foam or excessive pleural fluid was noted | No lesions were noted | diffusely red lungs which failed to collapse |
| CCCCCCCCCCCCCCCCCC[N+]1=C(CCCCCCCCCCCCCCCCC)N(CCO)CC1 [Formula III (Compound 2)] | – | 853.20 | – | – | – | – | – |
